What was measured:
[1] = Fluorescence spectrum measurement of triazapentalenes (Example 3); format: physicochemical; conditions: for λem (emission wavelength): excitation at absorption maximum; for φr (relative fluorescence quantum yield): dichloromethane, standard 9,10-bis(phenyl ethynyl)anthracene (0.96)
Protocol: The fluorescence spectrum of various triazapentalenes that have been synthesized by the same method as described in Example 1 and Example 2 was measured. A method for measurement will be specifically described below.
As triazapentalenes, compounds with the substituent group being a phenyl group, methoxyphenyl group, 2-cyanophenyl group, methoxycarbonylphenyl group, methyl ester group, diphenyl group, 3-cyanophenyl group, and nitrophenyl group were used.
(§1) Each of the above compounds was made into solution with concentration shown in Table 2 using dichloromethane as a solvent. […] The concentration of a sample solution was adjusted such that the intensity (Abs.) of absorption maximum wavelength was 0.100±0.005, and using a spectrophotometer (manufactured by Hitachi High-Technologies Corporation, U-3500), each fluorescence spectrum was measured with excitation wavelength (λex)=326 nm to 412 nm that was equal to absorption maximum wavelength. The fluorescence quantum yield was determined using 9,10-bis(phenyl ethynyl)anthracene (absolute fluorescence quantum yield=0.96) as a standard substance.
In FIG. 1 and Table 2, with regard to a substituent group, Ph represents a phenyl group, Me represents a methyl group, CO2Me represents a methyl ester group, OMe represents a methylalkoxy group, and CN represents a cyano group. Further, in Table λex represents excitation wavelength, ε represents a molar extinction coefficient, λem represents emission wavelength, φr represents a relative fluorescence quantum yield using 9,10-bis(phenyl ethynyl)anthracene (absolute fluorescence quantum yield=0.96) as a standard, and “−” represents no measurement data available.

[2] = standard substance; cited from earlier work
[3] = substituent at R^5; cited from earlier work
[4] = Solvatochromic fluorescence of triazapentalenes in various solvents (Example 4); format: physicochemical; conditions: dichloromethane, acetonitrile, benzene
Protocol: The fluorescence of a triazapentalene compound whose substituent group was -PhCN was measured in various solvents. A method for measurement will be specifically described below.
As solvents, dichloromethane (manufactured by Junsei Chemical Co., Ltd.), acetonitrile (manufactured by Kanto Chemical Co., Inc.), benzene (manufactured by Nacalai Tesque, Inc.), and acetone (manufactured by Nacalai Tesque, Inc.) were individually used.
Each of the triazapentalene compound whose substituent group was -PhCN was dissolved in the above solvent. With regard to the concentration of each solution, the concentration of solution with dichloromethane being used as the solvent was 5.81×10^−6 mol/L, the concentration of solution with acetonitrile being used as the solvent was 3.65×10^−6 mol/L, the concentration of solution with benzene being used as the solvent was 5.43×10^−6 mol/L, and the concentration of solution with acetone being used as the solvent was 6.63×10^−6 mol/L. Using a […] (manufactured by Hitachi High-Technologies Corporation, F-4500), the ultraviolet absorption spectrum was measured, and the absorption maximum wavelength (λmax) was determined to be 382 nm. […] The fluorescence quantum yield was determined using 9,10-bis(phenyl ethynyl)anthracene (absolute fluorescence quantum yield=0.96) as a standard substance.

[5] = Maximum absorption wavelength, maximum fluorescence wavelength and fluorescence quantum yield (Example 6); format: physicochemical; conditions: same manner as Example 3
Protocol: as §1
For each of the compounds shown in Table 3, the maximum absorption wavelength (λabs^max), maximum fluorescence wavelength (λem^max), and fluorescence quantum yield (ΦF) were measured. Further, the Hammett constant (σp) of substituent group was together described in Table 3. In Table 3, “-” represents no measurement data available. The measurement of the absorption wavelength, fluorescence wavelength, and fluorescence quantum yield was carried out in the same manner as described in Example 3. Here, a method of synthesizing compounds of 1o^a and 1r will be later described in Example 8. Compounds of 1e, 1n, 1f, 1g, 1l, 1k, 1h, and 1m, which are shown in Table 3 were synthesized by the method and condition described in Examples 1 to 2. Further, the compound 1a shown in Table 3 was synthesized under the under the same condition as in Example 1 and Example 2 except that a CO2CH3 part in the chemical formula 13 of the reaction formula (5) was replaced with a hydrogen atom. Thereby, the compound 1a having a triazapentalene backbone whose R^5 position was bound with the hydrogen atom was obtained.

[6] = Fluorescence of disubstituted product (Example 7); format: physicochemical; conditions: CH2Cl2 solution, excitation wavelength 370 nm
Text: Disubstituted products other than the disubstituted product represented by the chemical formula 20 are synthesized by the same method as the disubstituted product represented by the chemical formula 20. The numerical values in Table 4 and Table 5 were obtained in CH2Cl2 solution under a condition of an excitation wavelength of 370 nm

In the case of `Cn1c(-c2cccc(C#N)c2)cn2ccc[n+]12`, the “λex (excitation wavelength, equal to absorption maximum wavelength λmax)” value (“λex” below) ([1]; dichloromethane solution) is reported as 330 nm and the “λem (emission wavelength)” value ([1]; dichloromethane solution) is reported as 481 nm.

For `C(#Cc1c2ccccc2c(C#Cc2ccccc2)c2ccccc12)c1ccccc1` [9,10-bis(phenylethynyl)anthracene], the “absolute fluorescence quantum yield” value [2] is given as 0.96.

In the case of `Cn1c(-c2ccccc2)cn2ccc[n+]12` [Compound 1f], the “ε (molar extinction coefficient)” value ([1]; dichloromethane solution) is reported as 3.82 10^3 cm − M^−1, the “λex” value ([1]; dichloromethane solution) is reported as 326 nm and the “λem (emission wavelength)” value ([1]; dichloromethane solution) is reported as 419 nm. The “φr (relative fluorescence quantum yield)” value [1] was 3.0% and the “Hammett σP of substituent group” value [3] was 0.00.

In the case of `Cn1c(-c2ccc(C#N)cc2)cn2ccc[n+]12` [Compound 1h], the “fluorescence intensity (FIG. 1)” value ([1]; dichloromethane solution) is reported as “stronger fluorescence intensity”, the “ε (molar extinction coefficient)” value ([1]; dichloromethane solution) is reported as 2.85 10^3 cm − M^−1 and the “λex” value ([1]; dichloromethane solution) is reported as 381 nm. The “λem (emission wavelength)” value ([1]; dichloromethane solution) was 509 nm, the “φr (relative fluorescence quantum yield)” value [1] was 18% and the “absorption maximum wavelength (λmax)” value ([4]; acetone solutions) was 382 nm. For the same compound, the “solvatochromism of fluorescence spectrum (FIG. 2)” value ([4]; acetone, λex 382 nm) was “significant solvatochromism was observed”, the “λabs^max (maximum absorption wavelength)” value [5] was 381 nm and the “λem^max (maximum fluorescence wavelength)” value (shortened to “λem^max”) [5] was 509 nm. For the same compound, the “φF (fluorescence quantum yield)” value [5] was 0.18, the “λabs (absorption wavelength)” value [6] was 381 nm and the “λem (fluorescence wavelength)” value [6] was 509 nm. The “φF (quantum yield)” value [6] was 0.18 and the “Hammett σP of substituent group” value [3] was 0.71.

For `COC(=O)c1ccc(-c2cn3ccc[n+]3n2C)cc1` [Compound 1k], the “ε (molar extinction coefficient)” value ([1]; dichloromethane solution) was 3.02 10^3 cm − M^−1, the “λex” value ([1]; dichloromethane solution) was 376 nm and the “λem (emission wavelength)” value ([1]; dichloromethane solution) was 510 nm. For the same compound, the “φr (relative fluorescence quantum yield)” value [1] was 51%, the “λabs^max (maximum absorption wavelength)” value [5] was 376 nm and the “λem^max” value [5] was 510 nm. The “φF (fluorescence quantum yield)” value [5] was 0.51 and the “Hammett σP of substituent group” value [3] was 0.47.

With `Cn1c(-c2ccc([N+](=O)[O-])cc2)cn2ccc[n+]12` [Compound 1m] the “λex” value ([1]; dichloromethane solution) was 412 nm, the “λem (emission wavelength)” value ([1]; dichloromethane solution) was 556 nm and the “φr (relative fluorescence quantum yield)” value [1] was 16%. For the same compound, the “λabs^max (maximum absorption wavelength)” value [5] was 412 nm, the “λem^max” value [5] was 556 nm and the “φF (fluorescence quantum yield)” value [5] was 0.16. The “Hammett σP of substituent group” value [3] was 0.81.

With `COc1ccc(-c2cn3ccc[n+]3n2C)cc1` [Compound 1n] the “ε (molar extinction coefficient)” value ([1]; dichloromethane solution) was 5.70 10^3 cm − M^−1, the “λex” value ([1]; dichloromethane solution) was 330 nm and the “λem (emission wavelength)” value ([1]; dichloromethane solution) was 413 nm. For the same compound, the “φr (relative fluorescence quantum yield)” value [1] was 6.2%, the “λabs^max (maximum absorption wavelength)” value [5] was 330 nm and the “λem^max” value [5] was 413 nm. For the same compound, the “φF (fluorescence quantum yield)” value [5] was 0.062 and the “Hammett σP of substituent group” value [3] was −0.28.

From patent US9222016B2, “Compound having fluorescent chromophore, ion concentration sensor including compound, reagent including compound, reagent kit provided with reagent, precursor of compound, and method for synthesizing compound” (National University Corporation Hokkaido University, priority 2011, dated 2015)
